According to publication PMC7026418, “The kinase polypharmacology landscape of clinical PARP inhibitors” (Scientific Reports, 2020):
Like-named read-outs stand apart in the source and are kept apart here.

What was measured:
Test in all cases: biochemical
Parameters in all cases: DiscoveRx KINOMEscan active site-directed competition binding; percent of control kinase bound to immobilised ligand
KIT(L576P) = KIT(L576P) (Homo sapiens, UniProt P10721, L576P)
PRKCI = biological target: T1, PRKCI (Homo sapiens, UniProt P41743)
T1 sequence (P41743 1-596): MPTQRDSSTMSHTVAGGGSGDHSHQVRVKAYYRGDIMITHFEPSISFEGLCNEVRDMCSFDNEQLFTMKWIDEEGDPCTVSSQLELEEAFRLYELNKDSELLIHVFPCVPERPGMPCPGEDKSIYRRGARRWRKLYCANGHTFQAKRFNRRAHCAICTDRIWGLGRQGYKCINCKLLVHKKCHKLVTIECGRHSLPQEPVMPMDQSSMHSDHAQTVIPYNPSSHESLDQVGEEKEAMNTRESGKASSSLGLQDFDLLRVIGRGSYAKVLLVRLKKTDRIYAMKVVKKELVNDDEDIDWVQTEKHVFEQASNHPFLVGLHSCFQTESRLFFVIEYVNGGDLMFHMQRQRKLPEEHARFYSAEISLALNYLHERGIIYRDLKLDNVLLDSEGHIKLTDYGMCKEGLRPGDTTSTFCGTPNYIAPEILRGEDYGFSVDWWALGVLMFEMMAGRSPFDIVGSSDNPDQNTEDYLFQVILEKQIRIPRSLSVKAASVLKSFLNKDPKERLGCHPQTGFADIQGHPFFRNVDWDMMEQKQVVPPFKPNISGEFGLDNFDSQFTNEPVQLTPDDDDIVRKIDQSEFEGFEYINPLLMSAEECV

EPHA4 = EPHA4 (Homo sapiens, UniProt P54764)
[1] = biological target: T2, ABL1(M351T)-phosphorylated (Homo sapiens, UniProt P00519, M351T)
T2 construct: phosphorylated

AKT2 = AKT2 (Homo sapiens, UniProt P31751)
Sequence of AKT2 (P31751 whole entry): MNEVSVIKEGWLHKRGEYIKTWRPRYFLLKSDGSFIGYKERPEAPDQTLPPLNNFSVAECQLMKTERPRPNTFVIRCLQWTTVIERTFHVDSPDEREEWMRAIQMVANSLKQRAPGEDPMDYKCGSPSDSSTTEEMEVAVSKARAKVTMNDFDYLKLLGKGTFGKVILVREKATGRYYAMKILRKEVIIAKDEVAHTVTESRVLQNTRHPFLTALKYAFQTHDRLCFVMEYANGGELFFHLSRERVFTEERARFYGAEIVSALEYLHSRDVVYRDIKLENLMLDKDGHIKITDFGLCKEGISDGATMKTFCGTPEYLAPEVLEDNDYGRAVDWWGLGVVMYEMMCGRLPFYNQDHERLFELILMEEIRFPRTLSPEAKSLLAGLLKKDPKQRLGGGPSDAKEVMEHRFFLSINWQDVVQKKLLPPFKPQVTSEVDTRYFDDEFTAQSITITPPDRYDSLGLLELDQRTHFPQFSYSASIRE

CAMK2D = CAMK2D (Homo sapiens, UniProt Q13557)
PRKR = biological target: T3, PRKR (Homo sapiens, UniProt P19525)
T3 construct: gene EIF2AK2
T3 sequence (P19525 whole entry): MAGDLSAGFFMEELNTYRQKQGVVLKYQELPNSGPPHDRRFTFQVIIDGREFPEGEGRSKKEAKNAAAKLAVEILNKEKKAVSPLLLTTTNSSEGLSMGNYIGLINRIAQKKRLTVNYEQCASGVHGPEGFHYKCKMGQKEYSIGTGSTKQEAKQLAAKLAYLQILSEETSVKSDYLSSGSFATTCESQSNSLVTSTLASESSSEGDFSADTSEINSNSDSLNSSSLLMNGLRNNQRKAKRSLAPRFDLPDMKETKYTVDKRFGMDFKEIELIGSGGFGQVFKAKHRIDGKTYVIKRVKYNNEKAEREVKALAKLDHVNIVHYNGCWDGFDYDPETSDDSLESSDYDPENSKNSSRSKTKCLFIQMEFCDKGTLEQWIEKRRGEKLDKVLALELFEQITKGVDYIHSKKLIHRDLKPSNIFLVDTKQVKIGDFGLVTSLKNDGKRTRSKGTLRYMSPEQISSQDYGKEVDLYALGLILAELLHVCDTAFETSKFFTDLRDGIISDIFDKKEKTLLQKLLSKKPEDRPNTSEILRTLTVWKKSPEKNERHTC

PIK3CA(E545A) = PIK3CA(E545A) (Homo sapiens, UniProt P42336, E545A)
Sequence of PIK3CA(E545A) (P42336 whole entry E545A): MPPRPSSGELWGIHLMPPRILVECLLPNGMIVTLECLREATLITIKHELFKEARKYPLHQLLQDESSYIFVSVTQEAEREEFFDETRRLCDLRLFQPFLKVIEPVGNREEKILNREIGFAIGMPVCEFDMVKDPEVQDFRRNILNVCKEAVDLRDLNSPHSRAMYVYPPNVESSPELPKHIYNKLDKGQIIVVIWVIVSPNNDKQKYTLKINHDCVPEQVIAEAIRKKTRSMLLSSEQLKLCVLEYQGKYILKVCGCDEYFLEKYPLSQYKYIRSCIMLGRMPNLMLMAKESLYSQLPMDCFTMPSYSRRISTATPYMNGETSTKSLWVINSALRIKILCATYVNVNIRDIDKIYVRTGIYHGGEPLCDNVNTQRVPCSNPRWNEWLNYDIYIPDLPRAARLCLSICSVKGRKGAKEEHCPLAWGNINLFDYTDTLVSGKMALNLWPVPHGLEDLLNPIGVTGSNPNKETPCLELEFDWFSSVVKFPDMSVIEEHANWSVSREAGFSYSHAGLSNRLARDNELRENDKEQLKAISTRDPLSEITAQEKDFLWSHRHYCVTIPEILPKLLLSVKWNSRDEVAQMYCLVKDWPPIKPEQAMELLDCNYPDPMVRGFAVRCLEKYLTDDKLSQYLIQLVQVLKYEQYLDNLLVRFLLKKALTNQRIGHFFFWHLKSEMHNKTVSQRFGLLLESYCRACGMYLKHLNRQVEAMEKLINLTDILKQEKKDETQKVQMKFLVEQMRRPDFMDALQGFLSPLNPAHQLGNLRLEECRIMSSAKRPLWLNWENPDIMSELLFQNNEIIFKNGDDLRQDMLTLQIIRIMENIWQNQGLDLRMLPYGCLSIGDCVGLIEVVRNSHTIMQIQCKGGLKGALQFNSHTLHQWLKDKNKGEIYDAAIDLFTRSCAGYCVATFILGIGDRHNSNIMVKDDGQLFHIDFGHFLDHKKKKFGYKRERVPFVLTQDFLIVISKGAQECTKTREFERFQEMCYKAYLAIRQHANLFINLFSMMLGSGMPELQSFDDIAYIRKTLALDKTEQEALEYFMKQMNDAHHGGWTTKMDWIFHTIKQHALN

ACVR1B = biological target: T4, ACVR1B (Homo sapiens, UniProt P36896)
T4 sequence (P36896 1-505): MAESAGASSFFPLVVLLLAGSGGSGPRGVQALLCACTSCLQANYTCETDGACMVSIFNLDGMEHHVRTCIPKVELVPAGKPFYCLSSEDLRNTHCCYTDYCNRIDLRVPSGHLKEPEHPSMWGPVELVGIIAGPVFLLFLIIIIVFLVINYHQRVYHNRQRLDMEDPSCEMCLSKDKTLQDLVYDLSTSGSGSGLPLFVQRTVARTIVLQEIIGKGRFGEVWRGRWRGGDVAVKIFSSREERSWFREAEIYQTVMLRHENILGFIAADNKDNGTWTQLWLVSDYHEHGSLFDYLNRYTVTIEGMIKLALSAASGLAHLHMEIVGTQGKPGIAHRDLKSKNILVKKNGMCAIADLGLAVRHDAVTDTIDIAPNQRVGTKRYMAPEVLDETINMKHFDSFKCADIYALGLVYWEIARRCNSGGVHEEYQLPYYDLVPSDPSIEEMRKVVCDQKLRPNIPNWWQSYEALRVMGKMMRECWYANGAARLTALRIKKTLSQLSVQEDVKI

DAPK1 = DAPK1 (Homo sapiens, UniProt P53355)
Sequence of DAPK1 (P53355 whole entry): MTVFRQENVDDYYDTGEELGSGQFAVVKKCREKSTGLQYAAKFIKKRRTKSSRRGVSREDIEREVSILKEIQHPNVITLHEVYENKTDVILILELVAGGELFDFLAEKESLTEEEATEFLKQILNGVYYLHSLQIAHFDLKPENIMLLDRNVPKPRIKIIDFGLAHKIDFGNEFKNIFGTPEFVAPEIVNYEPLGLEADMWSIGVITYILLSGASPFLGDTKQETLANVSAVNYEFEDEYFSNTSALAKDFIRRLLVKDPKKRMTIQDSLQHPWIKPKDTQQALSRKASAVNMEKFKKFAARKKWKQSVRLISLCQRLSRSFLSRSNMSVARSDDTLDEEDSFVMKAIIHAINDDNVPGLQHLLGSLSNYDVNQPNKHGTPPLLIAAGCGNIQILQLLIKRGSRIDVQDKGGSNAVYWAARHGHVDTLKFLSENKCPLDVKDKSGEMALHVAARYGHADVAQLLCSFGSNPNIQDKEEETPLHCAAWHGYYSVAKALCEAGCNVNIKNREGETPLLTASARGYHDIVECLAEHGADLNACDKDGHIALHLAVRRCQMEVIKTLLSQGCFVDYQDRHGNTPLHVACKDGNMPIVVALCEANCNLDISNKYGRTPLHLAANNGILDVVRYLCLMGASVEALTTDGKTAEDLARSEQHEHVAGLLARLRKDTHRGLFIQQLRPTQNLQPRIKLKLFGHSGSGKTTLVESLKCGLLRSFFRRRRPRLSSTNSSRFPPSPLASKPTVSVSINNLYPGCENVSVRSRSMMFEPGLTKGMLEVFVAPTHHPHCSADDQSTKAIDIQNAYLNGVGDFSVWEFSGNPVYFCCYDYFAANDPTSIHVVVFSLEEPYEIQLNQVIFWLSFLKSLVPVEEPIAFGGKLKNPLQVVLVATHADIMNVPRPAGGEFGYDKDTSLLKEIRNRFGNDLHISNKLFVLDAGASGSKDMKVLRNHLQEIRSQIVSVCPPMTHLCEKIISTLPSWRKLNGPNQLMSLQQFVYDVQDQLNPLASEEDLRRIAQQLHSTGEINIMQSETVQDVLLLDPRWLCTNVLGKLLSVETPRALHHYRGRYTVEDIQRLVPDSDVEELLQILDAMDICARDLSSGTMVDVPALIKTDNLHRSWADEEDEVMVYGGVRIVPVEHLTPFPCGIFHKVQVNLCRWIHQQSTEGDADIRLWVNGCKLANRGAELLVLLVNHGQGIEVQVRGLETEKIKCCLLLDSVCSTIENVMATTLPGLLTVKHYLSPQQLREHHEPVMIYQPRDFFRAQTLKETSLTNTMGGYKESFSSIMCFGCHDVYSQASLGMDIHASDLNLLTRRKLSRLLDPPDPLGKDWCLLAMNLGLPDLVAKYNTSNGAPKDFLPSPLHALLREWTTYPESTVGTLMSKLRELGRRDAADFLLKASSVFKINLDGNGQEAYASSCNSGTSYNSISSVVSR

PHKG1 = PHKG1 (Homo sapiens, UniProt Q16816)
Sequence of PHKG1 (Q16816 whole entry): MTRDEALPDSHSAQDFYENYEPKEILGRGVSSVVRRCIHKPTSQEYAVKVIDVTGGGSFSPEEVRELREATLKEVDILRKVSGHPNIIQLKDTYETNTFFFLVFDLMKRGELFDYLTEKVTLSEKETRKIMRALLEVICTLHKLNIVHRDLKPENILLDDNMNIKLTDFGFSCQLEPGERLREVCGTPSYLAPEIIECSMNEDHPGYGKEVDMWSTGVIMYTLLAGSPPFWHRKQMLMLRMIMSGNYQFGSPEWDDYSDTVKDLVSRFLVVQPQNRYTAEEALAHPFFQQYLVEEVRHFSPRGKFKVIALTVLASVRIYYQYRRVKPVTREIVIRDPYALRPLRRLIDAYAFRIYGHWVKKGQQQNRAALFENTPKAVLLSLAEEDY

[2] = read-out: Niraparib (MK-4827) / %Ctrl @ 10000nM
[3] = read-out: Olaparib / %Ctrl @ 10000nM
[4] = read-out: Rucaparib / %Ctrl @ 10000nM, binding competition, % of control
[5] = read-out: Talazoparib (BMN 673) / %Ctrl @ 10000nM

Sequence of KIT(L576P) (P10721 whole entry L576P): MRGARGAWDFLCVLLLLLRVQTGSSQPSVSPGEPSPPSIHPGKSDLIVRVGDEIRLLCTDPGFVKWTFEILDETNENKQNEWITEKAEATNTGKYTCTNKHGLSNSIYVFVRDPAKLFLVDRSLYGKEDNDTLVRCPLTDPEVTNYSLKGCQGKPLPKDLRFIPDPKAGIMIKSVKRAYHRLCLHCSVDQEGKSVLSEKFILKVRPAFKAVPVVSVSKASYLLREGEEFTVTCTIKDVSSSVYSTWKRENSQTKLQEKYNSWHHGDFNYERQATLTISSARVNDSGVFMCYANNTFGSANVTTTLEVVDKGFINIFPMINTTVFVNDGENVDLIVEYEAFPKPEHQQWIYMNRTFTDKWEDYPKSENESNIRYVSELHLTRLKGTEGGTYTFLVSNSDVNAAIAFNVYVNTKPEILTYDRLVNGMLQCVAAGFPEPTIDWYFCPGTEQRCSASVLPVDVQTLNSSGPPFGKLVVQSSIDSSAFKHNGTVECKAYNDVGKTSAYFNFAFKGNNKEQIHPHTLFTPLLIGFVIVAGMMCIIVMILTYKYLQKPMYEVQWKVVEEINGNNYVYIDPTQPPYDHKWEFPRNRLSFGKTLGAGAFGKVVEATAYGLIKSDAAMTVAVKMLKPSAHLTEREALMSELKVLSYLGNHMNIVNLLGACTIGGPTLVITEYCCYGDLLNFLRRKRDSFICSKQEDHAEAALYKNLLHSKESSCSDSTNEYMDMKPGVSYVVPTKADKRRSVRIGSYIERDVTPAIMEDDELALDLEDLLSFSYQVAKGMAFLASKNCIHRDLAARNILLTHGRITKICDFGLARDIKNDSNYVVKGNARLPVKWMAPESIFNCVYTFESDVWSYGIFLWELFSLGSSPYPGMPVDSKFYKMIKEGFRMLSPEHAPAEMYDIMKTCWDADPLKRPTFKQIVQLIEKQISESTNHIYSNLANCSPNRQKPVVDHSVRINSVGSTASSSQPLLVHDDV

Question: NC(=O)c1cccc2cn(-c3ccc([C@@H]4CCCNC4)cc3)nc12 [Niraparib] was tested. Which percent of control binding at 10 µM (KIT(L576P); [2]) did it give?
Answer: 80%

Question: And the percent of control binding at 10 µM (PRKCI; [2])?
Answer: 85%

Question: What about the percent of control binding at 10 µM (EPHA4; [2]) of the same molecule?
Answer: 83%

Question: What about the percent of control binding at 10 µM [1, 2] of the same molecule?
Answer: 100%

Question: And the percent of control binding at 10 µM (AKT2; [2])?
Answer: 93%

Question: And the percent of control binding at 10 µM (CAMK2D; [2])?
Answer: 99%

Question: What about the percent of control binding at 10 µM (PRKR; [2]) of the same molecule?
Answer: 91%

Question: And the percent of control binding at 10 µM (PIK3CA(E545A); [2])?
Answer: 98%

Question: And the percent of control binding at 10 µM (ACVR1B; [2])?
Answer: 95%

Question: What about the percent of control binding at 10 µM (DAPK1; [2]) of the same molecule?
Answer: 77%

Question: What about the percent of control binding at 10 µM (PHKG1; [2]) of the same molecule?
Answer: 100%

Question: For O=C(c1cc(Cc2n[nH]c(=O)c3ccccc23)ccc1F)N1CCN(C(=O)C2CC2)CC1 [Olaparib], which percent of control binding at 10 µM (KIT(L576P); [3]) is on record?
Answer: 100%

Question: What about the percent of control binding at 10 µM (PRKCI; [3]) of the same molecule?
Answer: 100%

Question: And the percent of control binding at 10 µM (EPHA4; [3])?
Answer: 92%

Question: What about the percent of control binding at 10 µM [1, 3] of the same molecule?
Answer: 91%

Question: And the percent of control binding at 10 µM (AKT2; [3])?
Answer: 79%

Question: And the percent of control binding at 10 µM (CAMK2D; [3])?
Answer: 99%

Question: What about the percent of control binding at 10 µM (PRKR; [3]) of the same molecule?
Answer: 94%

Question: And the percent of control binding at 10 µM (PIK3CA(E545A); [3])?
Answer: 90%

Question: What about the percent of control binding at 10 µM (ACVR1B; [3]) of the same molecule?
Answer: 100%

Question: What about the percent of control binding at 10 µM (DAPK1; [3]) of the same molecule?
Answer: 87%

Question: What about the percent of control binding at 10 µM (PHKG1; [3]) of the same molecule?
Answer: 100%

Question: What does the source list for CNCc1ccc(-c2[nH]c3cc(F)cc4c3c2CCNC4=O)cc1 [Rucaparib]?
Answer: percent of control binding at 10 µM (KIT(L576P); [4]): 88%; percent of control binding at 10 µM (PRKCI; [4]): 72%; percent of control binding at 10 µM (EPHA4; [4]): 97%; percent of control binding at 10 µM [1, 4]: 75%; percent of control binding at 10 µM (AKT2; [4]): 87%; percent of control binding at 10 µM (CAMK2D; [4]): 89%; percent of control binding at 10 µM (PRKR; [4]): 76%; percent of control binding at 10 µM (PIK3CA(E545A); [4]): 85%; percent of control binding at 10 µM (ACVR1B; [4]): 89%; percent of control binding at 10 µM (DAPK1; [4]): 29%; percent of control binding at 10 µM (PHKG1; [4]): 87%

Question: Which percent of control binding at 10 µM (KIT(L576P); [5]) does the source give for Cn1ncnc1[C@H]1c2n[nH]c(=O)c3cc(F)cc(c23)N[C@@H]1c1ccc(F)cc1 [Talazoparib] here?
Answer: 100%

Question: What about the percent of control binding at 10 µM (PRKCI; [5]) of the same molecule?
Answer: 78%

Question: And the percent of control binding at 10 µM (EPHA4; [5])?
Answer: 100%

Question: And the percent of control binding at 10 µM [1, 5]?
Answer: 98%

Question: What about the percent of control binding at 10 µM (AKT2; [5]) of the same molecule?
Answer: 84%

Question: And the percent of control binding at 10 µM (CAMK2D; [5])?
Answer: 99%

Question: What about the percent of control binding at 10 µM (PRKR; [5]) of the same molecule?
Answer: 78%

Question: And the percent of control binding at 10 µM (PIK3CA(E545A); [5])?
Answer: 73%

Question: And the percent of control binding at 10 µM (ACVR1B; [5])?
Answer: 77%

Question: And the percent of control binding at 10 µM (DAPK1; [5])?
Answer: 89%

Question: What about the percent of control binding at 10 µM (PHKG1; [5]) of the same molecule?
Answer: 90%
